Starred links: 1 amine or outer side, 2 acyl side, 3 side chain; linkers in the order of their positions; H or OH if unused. Positions of bridges follow the written chain, without caps; N, C: chain ends. Non-standard residues stand in square brackets, D forms with d. Residues, ends and D or L forms follow the SMILES beside them. Groups on a side chain read outwards from the residue. *: point of attachment. X6 = O=C(O)CCCCCCCCCCCCCCCCC(=O)N[C@@H](CCC(=O)NCCCOCCOCCOCCCN*)C(=O)O; Ala(1-CH2COOH-inden-3-yl) = N[C@@H](CC1=CC(CC(=O)O)c2ccccc21)C(=O)O; X11 = O=C(O)CCCCCCCCCCCCC(=O)N[C@@H](CCC(=O)NCCCOCCOCCOCCCN*)C(=O)O; Trp(1-CH2COOH) = N[C@@H](Cc1cn(CC(=O)O)c2ccccc12)C(=O)O; X3 = NC(=O)[C@H](CC(=O)O)NC(=O)CCC(=O)NCCCOCCOCCOCCCN*; X14 = O=C(O)CCCCCCCCCCNC(=O)CCC(=O)NCCCOCCOCCOCCCN*; C18 diacid = O=C(O)CCCCCCCCCCCCCCCCC(=O)*; γGlu = O=C(O)[C@H](CCC(=O)[*:2])N[*:1]; Hyp = O=C(O)[C@@H]1C[C@@H](O)CN1; Undecanoyl = CCCCCCCCCCC(=O)*; NMeNle = CCCC[C@H](NC)C(=O)O; Pip = O=C(O)[C@@H]1CCCCN1; NMeA = CN[C@@H](C)C(=O)O; Pra = C#CC[C@H](N)C(=O)O; Aun = NCCCCCCCCCCC(=O)O; Dab = NCC[C@H](N)C(=O)O; Dap = NC[C@H](N)C(=O)O
Target: T1, PD-L1 (Homo sapiens, UniProt Q9NZQ7)
T1 construct: hPDL1(19-239)-TVMV-His; made in house; host or cells: HEK293T
T1 sequence (Q9NZQ7 with tags, fused parts or gaps): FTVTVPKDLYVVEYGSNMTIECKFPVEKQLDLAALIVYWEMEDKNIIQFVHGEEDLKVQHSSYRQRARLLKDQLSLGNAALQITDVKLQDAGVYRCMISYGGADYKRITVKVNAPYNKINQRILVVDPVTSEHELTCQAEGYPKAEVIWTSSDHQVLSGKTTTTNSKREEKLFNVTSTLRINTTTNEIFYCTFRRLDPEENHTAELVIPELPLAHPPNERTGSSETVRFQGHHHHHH
Assay: PD-1/PD-L1 Homogenous Time-Resolved Fluorescence (HTRF) binding assay (PD-1-Ig/PD-L1-His)
Settings: inhibition of PD-1-Ig binding to PD-L1-TVMV-His; value given as number; read-out: HTRF IC50
Procedure, shortened: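 Inhibitors pre-incubated 15 min with PD-L1-His (10 nM final), then PD-1-Ig (20 nM final) added for 15 min in dPBS/0.1% BSA/0.05% Tween-20. Eu-cryptate anti-Ig (1 nM) and APC anti-His (20 nM) added, 30 min equilibration, 665/620 nm HTRF ratio read.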

IC50 [nM]	Compound
4.1	CCCC[C@H]1C(=O)N(C)[C@@H](CCCC)C(=O)N[C@@H](CC(C)C)C(=O)N[C@H](C(=O)NCC(=O)N[C@H](CC(=O)O)C(=O)NCCCCCCCCCCC(=O)O)CSCC(=O)N[C@@H](Cc2ccc(O)cc2)C(=O)N(C)[C@@H](C)C(=O)N[C@@H](CC(N)=O)C(=O)N2CCC[C@H]2C(=O)N[C@@H](CN)C(=O)N[C@@H](CC(C)C)C(=O)N2C[C@H](O)C[C@H]2C(=O)N[C@@H](Cc2c[nH]c3ccccc23)C(=O)N[C@@H](CCN)C(=O)N[C@@H](Cc2cn(CC(=O)O)c3ccccc23)C(=O)N1C [Example 11101] ({CH2CO}-Y[NMeA]NP[Dap]L[Hyp]W[Dab][Trp(1-CH2COOH)][NMeNle][NMeNle]LCG[dD][Aun]-OH; thioether N-14)

Same assay, conditions: inhibition of PD-1-Ig binding to PD-L1-TVMV-His; value given as range class; read-out: HTRF IC50

Compound	IC50 [nM]
CCCC[C@H]1C(=O)N(C)[C@@H](CCCC)C(=O)N[C@@H](CC(C)C)C(=O)N[C@H](C(=O)NCC(=O)N[C@@H](Cc2cn(CC[C@H](NC(=O)CCCCCCCCCCCCCCCCC(=O)O)C(=O)O)nn2)C(=O)O)CSCC(=O)N[C@@H](Cc2ccc(F)cc2)C(=O)N2CCCC[C@H]2C(=O)N[C@@H](CC(=O)O)C(=O)N2CCC[C@H]2C(=O)N[C@@H](CN)C(=O)N[C@@H](CC(C)C)C(=O)N2C[C@H](O)C[C@H]2C(=O)N[C@@H](Cc2c[nH]c3ccccc23)C(=O)N[C@@H](CCN)C(=O)N[C@@H](Cc2cn(CC(=O)O)c3ccccc23)C(=O)N1C [Example 14122]	10 to 99
CCCC[C@H]1C(=O)N(C)[C@@H](CCCC)C(=O)N[C@@H](CC(C)C)C(=O)N[C@H](C(=O)NCCCOCCOCCOCCCNC(=O)CCC(=O)NCCCCCCCCCCC(=O)O)CSCC(=O)N[C@@H](Cc2ccc(O)cc2)C(=O)N(C)[C@@H](C)C(=O)N[C@@H](CC(N)=O)C(=O)N2CCC[C@H]2C(=O)N[C@@H](CO)C(=O)N[C@@H](CCC(N)=O)C(=O)N2C[C@H](O)C[C@H]2C(=O)N[C@@H](Cc2c[nH]c3ccccc23)C(=O)N[C@@H](CO)C(=O)N[C@@H](Cc2cn(CC(=O)O)c3ccccc23)C(=O)N1C [Example 11083] ({CH2CO}-Y[NMeA]NPSQ[Hyp]WS[Trp(1-CH2COOH)][NMeNle][NMeNle]LC-X14; thioether N-14)	10 to 99
CCCC[C@H]1C(=O)N(C)[C@@H](CCCC)C(=O)N[C@@H](CC(C)C)C(=O)N[C@H](C(=O)N[C@@H](CC(=O)O)C(=O)N[C@@H](CCC(=O)NCCCOCCOCCOCCCNC(=O)CC[C@H](NC(=O)CCCCCCCCCCCCC(=O)O)C(=O)O)C(=O)O)CSCC(=O)N[C@@H](Cc2ccc(O)cc2)C(=O)N(C)[C@@H](C)C(=O)N[C@@H](CC(N)=O)C(=O)N2CCC[C@H]2C(=O)N[C@@H](CN)C(=O)N[C@@H](CC(C)C)C(=O)N2C[C@H](O)C[C@H]2C(=O)N[C@@H](Cc2c[nH]c3ccccc23)C(=O)N[C@@H](CCN)C(=O)N[C@@H](Cc2cn(CC(=O)O)c3ccccc23)C(=O)N1C [Example 11261] ({CH2CO}-Y[NMeA]NP[Dap]L[Hyp]W[Dab][Trp(1-CH2COOH)][NMeNle][NMeNle]LCDE(X11)-OH; thioether N-14)	0.3 to 9.9
CCCC[C@H]1C(=O)N(C)[C@@H](CCCC)C(=O)N[C@@H](CCCNC(=N)N)C(=O)N[C@H](C(=O)NCC(=O)NCC(=O)NCCCCCCCCCCC(=O)O)CSCC(=O)N[C@@H](Cc2ccc(O)cc2)C(=O)N(C)[C@@H](C)C(=O)N[C@@H](CC(=O)O)C(=O)N2CCC[C@H]2C(=O)N[C@@H](Cc2cnc[nH]2)C(=O)N[C@@H](CC(C)C)C(=O)N2C[C@H](O)C[C@H]2C(=O)N[C@@H](Cc2c[nH]c3ccccc23)C(=O)N[C@@H](CO)C(=O)N[C@@H](Cc2c[nH]c3ccccc23)C(=O)N1C [Example 11071] ({CH2CO}-Y[NMeA]DPHL[Hyp]WSW[NMeNle][NMeNle]RCGG[Aun]-OH; thioether N-14)	0.3 to 9.9
CCCC[C@H]1C(=O)N(C)[C@@H](CCCC)C(=O)N[C@@H](CC(C)C)C(=O)N[C@H](C(=O)NCC(=O)N[C@@H](CCNC(=O)CC[C@H](NC(=O)CCCCCCCCCCCCCCCCC(=O)O)C(=O)O)C(=O)O)CSCC(=O)N[C@@H](Cc2ccc(OC)cc2)C(=O)N2CCCC[C@H]2C(=O)N[C@@H](CC(N)=O)C(=O)N2CCC[C@H]2C(=O)N[C@@H](Cc2c[nH]cn2)C(=O)N[C@@H](CC(C)C)C(=O)N2C[C@H](O)C[C@H]2C(=O)N[C@@H](Cc2c[nH]c3ccccc23)C(=O)N[C@@H](CCN)C(=O)N[C@@H](Cc2cn(CC(=O)O)c3ccccc23)C(=O)N1C [Example 13151] ({CH2CO}-Y(Me)[Pip]NPHL[Hyp]W[Dab][Trp(1-CH2COOH)][NMeNle][NMeNle]LCG[Dab]([γGlu-C18 diacid])-OH; thioether N-14)	10 to 99

Now from value to compound:

IC50 [nM]	Compound
10 to 99	CCCCCCCCCCC(=O)NCCCC[C@H](NC(=O)[C@H](CC(=O)O)NC(=O)CNC(=O)[C@@H]1CSCC(=O)N[C@@H](Cc2ccc(O)cc2)C(=O)N(C)[C@@H](C)C(=O)N[C@@H](CC(=O)O)C(=O)N2CCC[C@H]2C(=O)N[C@@H](Cc2cnc[nH]2)C(=O)N[C@@H](CC(C)C)C(=O)N2C[C@H](O)C[C@H]2C(=O)N[C@@H](Cc2c[nH]c3ccccc23)C(=O)N[C@@H](CO)C(=O)N[C@@H](Cc2c[nH]c3ccccc23)C(=O)N(C)[C@@H](CCCC)C(=O)N(C)[C@@H](CCCC)C(=O)N[C@@H](CCCNC(=N)N)C(=O)N1)C(N)=O [Example 11006] ({CH2CO}-Y[NMeA]DPHL[Hyp]WSW[NMeNle][NMeNle]RCGDK(Undecanoyl)-NH2; thioether N-14)
0.3 to 9.9	CCCC[C@H]1C(=O)N(C)[C@@H](CCCC)C(=O)N[C@@H](CC(C)C)C(=O)N[C@H](C(=O)NCC(=O)N[C@@H](CC(=O)O)C(=O)NCCCOCCOCCOCCCNC(=O)CC[C@H](NC(=O)CCCCCCCCCCCCCCCCC(=O)O)C(=O)O)CSCC(=O)N[C@@H](Cc2ccc(O)cc2)C(=O)N(C)[C@@H](C)C(=O)N[C@@H](CC(N)=O)C(=O)N2CCC[C@H]2C(=O)N[C@@H](CN)C(=O)N[C@@H](CC(C)C)C(=O)N2C[C@H](O)C[C@H]2C(=O)N[C@@H](Cc2c[nH]c3ccccc23)C(=O)N[C@@H](CCN)C(=O)N[C@@H](Cc2cn(CC(=O)O)c3ccccc23)C(=O)N1C [Example 11224] ({CH2CO}-Y[NMeA]NP[Dap]L[Hyp]W[Dab][Trp(1-CH2COOH)][NMeNle][NMeNle]LCGD-X6; thioether N-14)
10 to 99	CCCC[C@H]1C(=O)N(C)[C@@H](CCCC)C(=O)N[C@@H](CC(C)C)C(=O)N[C@H](C(=O)NCC(=O)NCCCOCCOCCOCCCNC(=O)CCC(=O)N[C@@H](CC(=O)O)C(N)=O)CSCC(=O)N[C@@H](Cc2ccc(O)cc2)C(=O)N(C)[C@@H](C)C(=O)N[C@@H](CC(N)=O)C(=O)N2CCC[C@H]2C(=O)N[C@@H](Cc2cnc[nH]2)C(=O)N[C@@H](CCC(=O)O)C(=O)N2C[C@H](O)C[C@H]2C(=O)N[C@@H](Cc2c[nH]c3ccccc23)C(=O)N[C@@H](CCN)C(=O)N[C@@H](Cc2c[nH]c3ccccc23)C(=O)N1C [Example 11065] ({CH2CO}-Y[NMeA]NPHE[Hyp]W[Dab]W[NMeNle][NMeNle]LCG-X3; thioether N-14)
0.3 to 9.9	CCCC[C@H]1C(=O)N(C)[C@@H](CCCC)C(=O)N[C@@H](CC(C)C)C(=O)N[C@H](C(=O)NCC(=O)NCCCCCCCCCCC(=O)O)CSCC(=O)N[C@@H](Cc2ccc(O)cc2)C(=O)N(C)[C@@H](C)C(=O)N[C@@H](CC(N)=O)C(=O)N2CCC[C@H]2C(=O)N[C@@H](Cc2cnc[nH]2)C(=O)N[C@@H](CCC(=O)O)C(=O)N2C[C@H](O)C[C@H]2C(=O)N[C@@H](Cc2c[nH]c3ccccc23)C(=O)N[C@@H](CCN)C(=O)N[C@@H](CC2=CC(CC(=O)O)c3ccccc32)C(=O)N1C (stereo partly shown) [Example 11077] ({CH2CO}-Y[NMeA]NPHE[Hyp]W[Dab][Ala(1-CH2COOH-inden-3-yl)][NMeNle][NMeNle]LCG[Aun]-OH; thioether N-14)
10 to 99	CCCC[C@H]1C(=O)N(C)[C@@H](CCCC)C(=O)N[C@@H](CCC(=O)O)C(=O)N[C@H](C(=O)NCC(=O)N[C@@H](Cc2cn(CC[C@H](NC(=O)CCCCCCCCCCCCCCC(=O)O)C(=O)O)nn2)C(=O)NCC(N)=O)CSCC(=O)N[C@@H](Cc2ccc(O)cc2)C(=O)N(C)[C@@H](C)C(=O)N[C@@H](CC(=O)O)C(=O)N2CCC[C@H]2C(=O)N[C@@H](Cc2c[nH]cn2)C(=O)N[C@@H](CCC(N)=O)C(=O)N2C[C@H](O)C[C@H]2C(=O)N[C@@H](Cc2c[nH]c3ccccc23)C(=O)N[C@@H](CO)C(=O)N[C@@H](Cc2c[nH]c3ccccc23)C(=O)N1C [Example 14069]
10 to 99	CCCC[C@H]1C(=O)N(C)[C@@H](CCCC)C(=O)N[C@@H](CCC(=O)O)C(=O)N[C@H](C(=O)NCC(=O)N[C@@H](Cc2cn(CC[C@H](NC(=O)CCCCCCCCCCCCCCC(=O)O)C(=O)O)nn2)C(=O)N[C@@H](CC(=O)O)C(N)=O)CSCC(=O)N[C@@H](Cc2ccc(O)cc2)C(=O)N(C)[C@@H](C)C(=O)N[C@@H](CC(=O)O)C(=O)N2CCC[C@H]2C(=O)N[C@@H](Cc2c[nH]cn2)C(=O)N[C@@H](CCCCN)C(=O)N2C[C@H](O)C[C@H]2C(=O)N[C@@H](Cc2c[nH]c3ccccc23)C(=O)N[C@@H](CCCCN)C(=O)N[C@@H](Cc2cn(CC(=O)O)c3ccccc23)C(=O)N1C [Example 14071]
0.3 to 9.9	C#CC[C@H](NC(=O)CNC(=O)[C@@H]1CSCC(=O)N[C@@H](Cc2ccc(O)cc2)C(=O)N(C)[C@@H](C)C(=O)N[C@@H](CC(=O)O)C(=O)N2CCC[C@H]2C(=O)N[C@@H](Cc2c[nH]cn2)C(=O)N[C@@H](CCC(N)=O)C(=O)N2C[C@H](O)C[C@H]2C(=O)N[C@@H](Cc2c[nH]c3ccccc23)C(=O)N[C@@H](CO)C(=O)N[C@@H](Cc2c[nH]c3ccccc23)C(=O)N(C)[C@@H](CCCC)C(=O)N(C)[C@@H](CCCC)C(=O)N[C@@H](CCC(=O)O)C(=O)N1)C(=O)NCC(N)=O [INT 1400C] ({CH2CO}-Y[NMeA]DPHQ[Hyp]WSW[NMeNle][NMeNle]ECG[Pra]G-NH2; thioether N-14)
